Read-outs that look alike come from different tables or passages of the source.
Legend:
Human cRaf1 = target: T1, Human cRaf1 (Homo sapiens, UniProt P04049); experiment: Raf kinase assay (cRaf1 assay / Raf/MEK cascade assay); assay type: biochemical
T1 construct: poly-histidine (C); made in house

[1] = test system: MDA-MB-468 (human breast carcinoma cell line); experiment: Cell Based Efficacy (MTT Assay), MDA-MB-468; conditions: 72 hours with compound, 50% inhibitory concentration
Protocol: (§1) The potency of compounds of the invention are tested for their ability to inhibit cell proliferation and cell viability. The metabolic conversion of 3-(4,5-dimethylthiazol-2-yl)-2,5-diphenyltetrazolium bromide (MTT, Sigma #M2128) to a reduced form is a commonly used measure of cellular viability. Following is the procedure:
(§2) Cells are maintained in 75 cm^2 tissue culture flasks until ready for use. The cells are grown and plated for the assay in Dulbecco's modified Eagle's media containing 10% fetal bovine serum. For example, the following cell lines can be used: a) human foreskin fibroblasts (HFF), b) HT29 (human colon carcinoma cell line), c) MDA-MB-468 (human breast carcinoma cell line), d) RKO (human colon adenocarcinoma cell line), e) SW620 (human colon carcinoma cell line), f) A549 (human lung carcinoma cell line), and g) MIA PACA (human pancreatic carcinoma cell line). Cells are maintained at 37° C. in 10% CO2, 90% humidified air. Cells are plated in 96-well tissue culture plates at the densities listed below. 100 μL of cell suspension is added to each well of the 96-well plate except the top row of the plate which contains no cells and serves as a reference for the spectrophotometer. […]
(§3) Cells are incubated overnight in Dulbecco's modified Eagle's media containing 10% fetal bovine serum at 37° C. in 10% CO2, 90% humidified air prior to dosing. Cells are dosed in 10 sequential 3-fold dilutions starting at 30 uM depending upon the solubility of the compound. Compounds with solubilities of less than 30 uM are dosed at the highest soluble concentration. Stock solutions of compounds are made in 100% dimethyl sulfoxide (DMSO). Stock solutions are diluted in Dulbecco's modified Eagle's media containing 100 ug/mL gentamicin and 0.3 to 0.6% DMSO at the twice the highest concentration to be placed on the cells. If compounds have been dissolved in DMSO the final concentration of DMSO on the cells is kept below 0.3%. 3-fold serial dilutions are performed on each compound to prepare 10 concentrations of the compound for dosing. 100 μL of diluted compound is added to the 100 μL of media currently on the dish. For each concentration of compound, 2-4 replicate wells are prepared.
(§4) Cells are returned to incubator and allowed to proliferate in the presence of compound for 72 hours before addition of MTT. MTT is prepared in phosphate buffered saline (Irvine Scientific #9240) at a concentration of 2mg/mL. 50 μL per well of MTT solution is added to the 200 μL of media to yield a final concentration of 0.4 mg/mL and plates are returned to the incubator for 4 hours. After 4 hours incubation the media, compound and MTT mixture is aspirated from the plates and 100 μL of 100% DMSO is added to each well in addition to 25 μL of Sorenson's Buffer (0.1M glycine, 0.1M NaCl, pH 10.5). Quantitation of metabolic reduction of MTT in each plate is performed by reading optical density at 570 nm wavelength on a Molecular Devices UVmax microplate reader. Growth inhibition curves and 50% inhibitory concentrations are determined using Microsoft Excel.
(§5) Table 4 illustrates the inhibitory activity of compounds of the present invention against a representative kinase (raf) and the cytotoxicity of compounds of the present invention against a broad range of human tumor cell lines.

[2] = test system: SW620 (human colon carcinoma cell line); experiment: Cell Based Efficacy (MTT Assay), SW620; conditions: SW-620, 72 hours with compound, 50% inhibitory concentration
Protocol: as §1, §2, §3, §4, §5

[3] = test system: HT29 (human colon carcinoma cell line); experiment: Cell Based Efficacy (MTT Assay), HT29; conditions: HT-29, 72 hours with compound, 50% inhibitory concentration
Protocol: as §1
(§6) Cells are maintained in 75 cm^2 tissue culture flasks until ready for use. The cells are grown and plated for the assay in Dulbecco's modified Eagle's media containing 10% fetal bovine serum. For example, the following cell lines can be used: a) human foreskin fibroblasts (HFF), b) HT29 (human colon carcinoma cell line), c) MDA-MB-468 (human breast carcinoma cell line), d) RKO (human colon adenocarcinoma cell line), e) SW620 (human colon carcinoma cell line), f) A549 (human lung carcinoma cell line), and g) MIA PACA (human pancreatic carcinoma cell line). Cells are maintained at 37° C. in 10% CO2, 90% humidified air. Cells are plated in 96-well tissue culture plates at the densities listed below. 100 μL of cell suspension is added to each well of the 96-well plate except the top row of the plate which contains no cells and serves as a reference for the spectrophotometer.
as §3, §4, §5

PC-3 (prostate) = experiment: Cell Based Efficacy (MTT Assay), PC-3; conditions: Homo sapiens; 72 hours with compound; 50% inhibitory concentration
Protocol: as §1, §6, §3, §4, §5

[4] = test system: MIA PACA (human pancreatic carcinoma cell line); experiment: Cell Based Efficacy (MTT Assay), MIA PACA; conditions: MIA PaCa-2, 72 hours with compound, 50% inhibitory concentration
Protocol: as §1, §6
MIA PACA 3000 cells/well
as §3, §4, §5

HT-29 xenograft = experiment: Anti-tumor study in mice, HT-29 xenograft; assay type: in vivo
Protocol: Mice are acquired from Taconic Farms and are maintained in Microisolator cages at 72±2° F. with a 12 hour light/dark cycle. Animals are housed at 4 mice per cage (28×17×12 cm ) and are given food and water ad libitum. Animals are numbered through the use of an ear punch or tail tattoo. All animal handling is done in a laminar flow hood.
Solid tumors are measured by caliper measurement through the skin. Caliper measurements are typically made twice weekly. Tumor weight is calculated using the equation (length×width^2 /2)=mg tumor weight.
Compounds are prepared in a vehicle consisting of DMSO, Cremophore and PBS.
Drug therapy begins when the average tumor size is approximately 40-50 mg, which usually is day 7 after implant. The dose schedule consists of one dose/day for 5 consecutive days. Drugs are administered at 3 or 4 dose-levels based upon the previously-determined maximally tolerated dose. A vehicle control group is also included. Drugs may be administered by either i.v., i.p., s.c., or oral (p.o.) transdermal routes or other alternative routes. Drugs may be administered via tail vein infusion. The injection volume administered for each mouse is usually 0.01-0.02 mL/g of body weight. In the case of i.v. injections and tail vein infusion animals are restrained in a Broome restrainer during handling. Animal are fasted overnight prior to p.o. dosing. […]

[5] = Table 3, read-out: Raf Kinase activity

T1 sequence (P04049 whole entry): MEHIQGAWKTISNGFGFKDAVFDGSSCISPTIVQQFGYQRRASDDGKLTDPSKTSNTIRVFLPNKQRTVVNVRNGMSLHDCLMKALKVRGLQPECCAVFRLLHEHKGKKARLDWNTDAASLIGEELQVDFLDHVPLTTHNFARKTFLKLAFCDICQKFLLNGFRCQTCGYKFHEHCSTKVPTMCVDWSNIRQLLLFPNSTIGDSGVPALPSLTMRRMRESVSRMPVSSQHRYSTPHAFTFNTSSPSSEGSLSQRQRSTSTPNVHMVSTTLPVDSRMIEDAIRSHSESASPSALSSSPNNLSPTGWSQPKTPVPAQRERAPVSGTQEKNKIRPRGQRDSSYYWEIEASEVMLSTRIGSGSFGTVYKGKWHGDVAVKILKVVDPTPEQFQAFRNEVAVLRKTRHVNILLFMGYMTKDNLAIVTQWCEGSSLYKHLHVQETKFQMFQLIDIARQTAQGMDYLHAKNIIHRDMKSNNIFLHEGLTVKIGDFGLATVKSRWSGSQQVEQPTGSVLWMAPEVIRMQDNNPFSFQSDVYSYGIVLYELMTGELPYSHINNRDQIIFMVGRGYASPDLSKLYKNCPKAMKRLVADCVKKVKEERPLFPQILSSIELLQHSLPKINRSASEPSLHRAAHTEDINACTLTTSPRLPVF

| SMILES | IC50 (Human cRaf1; [5]) [µM] | IC50 (Human cRaf1; Table 4, read-out: Raf) [µM] | IC50 [1] [µM] | IC50 [2] [µM] | IC50 [3] [µM] | IC50 (PC-3 (prostate)) [µM] | IC50 [4] [µM] | Tumor Response % Inhibition @ mg/kg (HT-29 xenograft; 5 mg/kg) [%] | Tumor Response % Inhibition @ mg/kg (HT-29 xenograft; 25 mg/kg) [%] |
| --- | --- | --- | --- | --- | --- | --- | --- | --- | --- |
| Cn1nnc(-c2ccc3c(c2)C(=Cc2cc(Br)c(O)c(Br)c2)C(=O)N3)n1 [Example 143, 3-(3,5-Dibromo-4-hydroxy-benzylidene)-5-(2-methyl-2H-tetrazol-5-yl)-1,3-dihydro-indol-2-one] | < 1 | < 0.5 | 0.5 to 5 | 0.5 to 5 | 0.5 to 5 | – | – | – | – |
| O=C1Nc2ccc3ncccc3c2C1=Cc1cc(Br)c(O)c(Br)c1 [Example 119, 1-(3,5-Dibromo-4-hydroxy-benzylidene)-1,3-dihydro-pyrrolo[3,2-f]quinolin-2-one] | < 1 | < 0.5 | 0.5 to 5 | 0.5 to 5 | 0.5 to 5 | 0.5 to 5 | 0.5 to 5 | – | – |
| O=C1Nc2ccc3ncsc3c2C1=Cc1cc(Br)c(O)c(Br)c1 [Example 121, 8-(3,5-Dibromo-4-hydroxy-benzylidine)-6,8-dihydro-1-thia-3,6-diaza-as-indacen-7-one] | < 1 | < 0.5 | 0.5 to 5 | 0.5 to 5 | 0.5 to 5 | – | 5 to 50 | – | – |
| NCc1ccc2c(c1)C(=Cc1cc(Br)c(O)c(Br)c1)C(=O)N2 [Example 25, 5-Aminomethyl-3-(3,5-dibromo-4-hydroxy-benzylidene)-1,3-dihydro-indol-2-one] | 1 to 10 | 0.5 to 5 | 5 to 50 | 5 to 50 | 5 to 50 | 5 to 50 | 5 to 50 | – | – |
| O=C1Nc2cc(Br)ccc2C1=Cc1cc(Cl)c(O)c(Cl)c1 [Example 133, 6-Bromo-3-(3,5-dichloro-4-hydroxy-benzylidene)-1,3-dihydro-indol-2-one] | < 1 | < 0.5 | 0.5 to 5 | 5 to 50 | 0.5 to 5 | 5 to 50 | 5 to 50 | – | – |
| Cc1nc(-c2ccc3c(c2)C(=Cc2cc([N+](=O)[O-])c(O)c([N+](=O)[O-])c2)C(=O)N3)cs1 [Example 130, 3-(3,5-Dinitro-4-hydroxy-benzylidene)-5-(2-methyl-thiazol-4-yl)-1,3-dihydro-indol-2-one] | < 1 | < 0.5 | 5 to 50 | 5 to 50 | > 50 | > 50 | 5 to 50 | – | – |
| Cc1nc(-c2ccc3c(c2)C(=Cc2cc(Br)c(O)c(Br)c2)C(=O)N3)cs1 [Example 2, 3-(3,5-Dibromo-4-hydroxy-benzylidene)-5-(2-methyl-thiazol-4-yl)-1,3-dihydro-indol-2-one] | < 1 | < 0.5 | 0.5 to 5 | 0.5 to 5 | 0.5 to 5 | 5 to 50 | 0.5 to 5 | 50 | – |
| N#Cc1ccc2c(c1)C(=Cc1cc(Br)c(O)c(Br)c1)C(=O)N2 [Example 1, 3-(3,5-Dibromo-4-hydroxy-benzylidine)-2-oxo-2,3-dihydro-1H-indole-5-carbonitrile] | < 1 | < 0.5 | 5 to 50 | 5 to 50 | 5 to 50 | 5 to 50 | 5 to 50 | – | – |
| CCOc1cc(C=C2C(=O)Nc3ccc(C(=O)c4ccccc4)cc32)cc(Br)c1O [Example 8, 5-Benzoyl-3-(3-bromo-5-ethoxy-4-hydroxy-benzylidene)-1,3-dihydro-indol-2-one] | < 1 | < 0.5 | 5 to 50 | 5 to 50 | 5 to 50 | 5 to 50 | 5 to 50 | – | – |
| O=C1Nc2ccc(C(=O)CCl)cc2C1=Cc1cc(Br)c(O)c(Br)c1 [Example 84, 5-(2-Chloro-acetyl)-3-(3,5-dibromo-4-hydroxy-benzylidene)-1,3-dihydro-indol-2-one] | < 1 | – | – | – | – | – | – | – | 50 |
| CS(=O)(=O)c1ccc2c(c1)C(=Cc1cc(Br)c(O)c(Br)c1)C(=O)N2 [Example 174, 3-[(3,5-Dibromo-4-hydroxyphenyl)methylidene]-5-(methylsulfonyl)-1,3-dihydro-2H-indol-2-one] | < 1 | – | – | – | – | – | – | – | – |
| CC(=O)N1CCc2cc3c(cc21)C(=Cc1cc(Br)c(O)c(Br)c1)C(=O)N3 [Example 118, 5-Acetyl-3-(3,5-dibromo-4-hydroxy-benzylidene)-3,5,6,7-tetrahydro-1H-pyrrolo[2,3-f]indol-2-one] | < 1 | – | – | – | – | – | – | – | – |
| CCOc1cc(C=C2C(=O)Nc3ccc(C(=O)c4ccco4)cc32)cc(Br)c1O [Example 23] | < 1 | – | – | – | – | – | – | – | – |
| COc1cc(C=C2C(=O)Nc3ccc(Br)cc32)cc(Cl)c1O [Example 82, 5-Bromo-3-(3-chloro-4-hydroxy-5-methoxy-benzylidene)-1,3-dihydro-indol-2-one] | < 1 | – | – | – | – | – | – | – | – |
| O=C1Nc2ccc(-c3csc(Nc4ccccc4)n3)cc2C1=Cc1cc(Br)c(O)c(Br)c1 [Example 126, 3-(3,5-Dibromo-4-hydroxy-benzylidene)-5-(2-phenylamino-thiazol-4-yl)-1,3-dihydro-indol-2-one] | < 1 | – | – | – | – | – | – | – | – |
| O=C1Nc2c(I)cccc2C1=Cc1cc(Br)c(O)c(Br)c1 [Example 64, 3-(3,5-Dibromo-4-hydroxy-benzylidene)-7-iodo-1,3-dihydro-indol-2-one] | < 1 | – | – | – | – | – | – | – | – |
| O=C1Nc2cc(Br)ccc2C1=Cc1cc(Br)c(O)c(Br)c1 [Example 123, 6-Bromo-3-(3,5-dibromo-4-hydroxy-benzylidene)-1,3-dihydro-indol-2-one] | < 1 | – | – | – | – | – | – | – | – |

From patent publication US6268391A, “Benzylidene-1,3-dihydro-indol-2-one derivatives a receptor tyrosine kinase inhibitors, particularly of Raf kinases” (Glaxo Wellcome Inc., priority 1997, dated 2001)
